From PubChem BioAssay (NCI)
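48-hour exposure; five concentrations; linearly interpolated endpoints. GI50 = concentration required for 50% inhibition of growth. TGI marks complete inhibition of growth.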

Legend:
Test in all cases: NCI-60 cell line screen, 48 h; in the data active means GI50 below about 0.43 µM; inactive means the rest
[1] = test system: UACC-257 melanoma
[2] = test system: M14 melanoma
[3] = test system: TK-10 renal
[4] = test system: OVCAR-5 ovarian
[5] = test system: SK-MEL-28 melanoma
[6] = test system: UACC-62 melanoma
[7] = test system: LOX IMVI melanoma
[8] = test system: OVCAR-3 ovarian
[9] = test system: SF-295 CNS
[10] = test system: MDA-MB-435
[11] = test system: SF-539 CNS
[12] = test system: NCI-H522 lung
[13] = test system: RXF 393 renal
[14] = test system: NCI-H460 lung
[15] = test system: KM12 colon
[16] = test system: HCT-15 colon
[17] = test system: SNB-75 CNS
[18] = test system: CAKI-1 renal
[19] = test system: BT-549 breast
[20] = test system: HCC-2998 colon
[21] = test system: OVCAR-8 ovarian
[22] = test system: MDA-N
[23] = test system: NCI/ADR-RES ovarian
[24] = test system: HCT-116 colon
[25] = test system: OVCAR-4 ovarian
[26] = test system: PC-3 prostate
[27] = test system: ACHN renal
[28] = test system: 786-0 renal
[29] = test system: SNB-19 CNS
[30] = test system: SN12C renal
[31] = test system: HT29 colon
[32] = test system: A549 NSCLC
[33] = test system: NCI-H226 lung
[34] = test system: UO-31 renal
[35] = test system: CCRF-CEM leukemia
[36] = test system: A498 renal
[37] = test system: HL-60(TB) leukemia
[38] = test system: SK-OV-3 ovarian
[39] = test system: SF-268 CNS
[40] = test system: U251 CNS
[41] = test system: NCI-H23 lung
[42] = test system: MCF7 breast
[43] = test system: HOP-92 NSCLC
[44] = test system: MALME-3M melanoma
[45] = test system: SW-620 colon
[46] = test system: K-562 leukemia
[47] = test system: HS 578T breast
[48] = test system: EKVX NSCLC
[49] = test system: HOP-62 NSCLC
[50] = test system: RPMI-8226 leukemia
[51] = test system: MOLT-4 leukemia
[52] = test system: SK-MEL-2 melanoma
[53] = test system: IGROV1 ovarian
[54] = test system: SR leukemia
[55] = test system: COLO 205 colon
[56] = test system: T-47D breast
[57] = test system: MDA-MB-231 breast
[58] = test system: DU-145 prostate
[59] = test system: SK-MEL-5 melanoma

CCN(CC)CCn1nc(N)c2nc3ccccc3nc21
> 100 µM: TGI [1] | TGI [2] | TGI [3] | TGI [4] | TGI [5] | TGI [6] | TGI [7] | TGI [8] | TGI [9] | TGI [10] | TGI [11] | TGI [12] | TGI [13] | TGI [14] | TGI [15] | TGI [16] | TGI [17] | TGI [18] | TGI [19] | TGI [20] | TGI [21] | TGI [22] | TGI [23] | TGI [24] | TGI [25] | TGI [26] | TGI [27] | TGI [28] | TGI [29] | TGI [30] | TGI [31] | TGI [32] | TGI [33] | TGI [34] | TGI [35] | TGI [36] | TGI [37] | TGI [38] | TGI [39] | TGI [40] | TGI [41] | TGI [42] | TGI [43] | TGI [44] | TGI [45] | TGI [46] | TGI [47] | TGI [48] | TGI [49] | TGI [50] | TGI [51] | TGI [52] | TGI [53] | TGI [54]

CS(=O)(=O)CCNCc1ccc(-c2ccc3ncnc(Nc4ccc(OCc5ccccc5)cc4)c3c2)o1
11.4 µM: TGI [10] | TGI [55]
> 17 µM: TGI [24]
> 16.8 µM: TGI [50]
9.7 µM: TGI [3]
9.74 µM: TGI [2]
14 µM: TGI [37]
8.27 µM: TGI [36]
> 20.5 µM: TGI [47]
8.98 µM: TGI [6]
> 17.3 µM: TGI [45]
active: GI50 [3] 0.285 µM | GI50 [38] 0.401 µM | GI50 [48] 0.371 µM
11.1 µM: TGI [57] | TGI [44]
> 25 µM: TGI [4] | TGI [8] | TGI [14] | TGI [15] | TGI [17] | TGI [18] | TGI [56] | TGI [21] | TGI [23] | TGI [25] | TGI [27] | TGI [29] | TGI [30] | TGI [32] | TGI [33] | TGI [38] | TGI [39] | TGI [58] | TGI [40] | TGI [41] | TGI [46] | TGI [49] | TGI [51]
7.11 µM: TGI [59]
8.75 µM: TGI [7]
> 23.7 µM: TGI [26]
11 µM: TGI [11]
inactive: GI50 [1] 4.38 µM | GI50 [2] 4.89 µM | GI50 [4] 6.51 µM | GI50 [5] 4.04 µM | GI50 [6] 4.68 µM | GI50 [7] 4.05 µM | GI50 [8] 8.47 µM | GI50 [9] 4.89 µM | GI50 [10] 4.94 µM | GI50 [11] 4.91 µM | GI50 [12] 3.32 µM | GI50 [13] 4.12 µM | GI50 [14] 3.73 µM | GI50 [15] 8.85 µM | GI50 [16] 4.13 µM | GI50 [55] 5 µM | GI50 [17] 5.71 µM | GI50 [18] 2.04 µM | GI50 [19] 5.85 µM | GI50 [20] 5.26 µM | GI50 [56] 4.01 µM | GI50 [21] 8.73 µM | GI50 [23] 6.71 µM | GI50 [24] 5.99 µM | GI50 [25] 11.1 µM | GI50 [26] 7.23 µM | GI50 [27] 1.28 µM | GI50 [28] 4.35 µM | GI50 [29] 11.1 µM | GI50 [30] 5.87 µM | GI50 [31] 3.33 µM | GI50 [32] 5.19 µM | GI50 [33] 13.2 µM | GI50 [34] 2.95 µM | GI50 [57] 4.82 µM | GI50 [35] 0.631 µM | GI50 [36] 2.98 µM | GI50 [37] 6.4 µM | GI50 [39] 9.14 µM | GI50 [58] 5.3 µM | GI50 [40] 6.2 µM | GI50 [59] 3.72 µM | GI50 [41] 8.57 µM | GI50 [42] 2.84 µM | GI50 [43] 3.13 µM | GI50 [44] 4.99 µM | GI50 [45] 6.94 µM | GI50 [46] 9.27 µM | GI50 [47] 6.43 µM | GI50 [49] 9.66 µM | GI50 [50] 5.38 µM | GI50 [51] 9.31 µM | GI50 [52] 5.5 µM | GI50 [53] 3.45 µM | GI50 [54] 5.06 µM
8.73 µM: TGI [28]
> 19.9 µM: TGI [54]
13.4 µM: TGI [16]
8.95 µM: TGI [34]
7.83 µM: TGI [5]
13.5 µM: TGI [31]
10.8 µM: TGI [9]
24.7 µM: TGI [48]
> 15.6 µM: TGI [35]
> 17.7 µM: TGI [42]
10.7 µM: TGI [52]
12.1 µM: TGI [20]
8.56 µM: TGI [1]
17.5 µM: TGI [19]
10.4 µM: TGI [12]
14.1 µM: TGI [43]
10.1 µM: TGI [13]
> 18.8 µM: TGI [53]

O=P1(O)c2ccccc2CCc2ccccc21
> 100 µM: TGI [1] | TGI [2] | TGI [3] | TGI [5] | TGI [6] | TGI [7] | TGI [8] | TGI [9] | TGI [10] | TGI [11] | TGI [12] | TGI [13] | TGI [15] | TGI [16] | TGI [55] | TGI [17] | TGI [18] | TGI [19] | TGI [20] | TGI [21] | TGI [22] | TGI [24] | TGI [26] | TGI [28] | TGI [29] | TGI [30] | TGI [32] | TGI [33] | TGI [34] | TGI [57] | TGI [35] | TGI [38] | TGI [39] | TGI [58] | TGI [59] | TGI [41] | TGI [42] | TGI [43] | TGI [45] | TGI [46] | TGI [47] | TGI [48] | TGI [49] | TGI [50] | TGI [51] | TGI [52] | TGI [53]
